# Results from patent publication US8748412B2, “Phenylalanine derivatives and their use as non-peptide GLP-1 receptor modulators” (Argusina Bioscience Inc., priority 2011, dated 2014).
# Target: T1, human GLP1R (Homo sapiens, UniProt P43220)
# T1 construct: expressed in transfected cells; host or cells: CHO cells (ATCC), transient transfection with pCMV-human GLP1R
# Assay: Human GLP-1 receptor transfected cell assay (MRE/CRE-luciferase reporter gene, agonist activity)
# Type: cell-based
# Settings: 6 h; conc. 10 μM; percentage of the activity of the control; read-out: Agonist Activity
# Procedure: The glucagon-like peptide I receptor (GLP1R) is a class B Gs-coupled membrane receptor, an agonist of which activates adenylate cyclase (AC) and elevates intracellular cAMP level. In turn, the high content of secondary messengers can activate the cAMP response element binding protein (CREB), which can translocate into nucleus to activate gene transcription.
# A reporter gene based screening assay was established to measure the effect of a compound on GLP1R. In this assay, a compound was incubated with CHO cells transiently transfected with a human GLP1R plasmid and a multiple response element (MRE)/cAMP response element (CRE)-driven luciferase reporter plasmid. Once luciferase was induced by the compound, its specific substrate can be activated to produce light signal for measurement.
# Materials used in this assay included: (i) cell line: Chinese hamster ovary (CHO) cells (ATCC); (ii) fetal bovine serum (FBS) (Biochrom Co.); (iii) culture medium: RPMI1640 (Invitrogen Co.) supplemented with 10% FBS; (iv) LIPOFECTAMINE™ 2000 Reagent (Invitrogen Co.); (v) plasmids: pCMV-human GLP1R and pGL3-1905 reporter plasmid; (vi) GLP1 (7-36 amide) peptide (Sigma Co.); and (vii) BRIGHT-GLO™ Luciferase Assay System (Promega Co.).
# Instruments used in this assay included: (i) Form a carbon dioxide incubator (Thermo Form a Co.); and (ii) Flexstation 3 (Molecular Device Co.).
# Before transfection, CHO cells were plated into a 6-well culture plate at 800,000/2 mL/well, and cultured at 37° C. in 5% CO2 overnight. On the transfection day, cells were transfected with receptor plasmid and reporter plasmid using LIPOFECTAMINE™ 2000 reagent. After 6-hour transfection, cells were digested and seeded into 96-well plates at 20,000/100 μL/well. After 14-16 hour incubation, transfected cells were washed with 100 μL serum-free RPMII 640 medium first, and then added 50 μL of the culture medium. The GLP-1 standard and test compounds were respectively diluted to a series of concentrations, which were then added into the above 96-well culture plate at 50 μL/well. The cells were incubated at 37° C. in 5% CO2 for 6 hrs. The activity of luciferase was detected using BRIGHT-GLO™ Luciferase Analytic System, and the reading was performed with a Flexstation3 plate reader machine.
# T1 sequence (P43220 24-463): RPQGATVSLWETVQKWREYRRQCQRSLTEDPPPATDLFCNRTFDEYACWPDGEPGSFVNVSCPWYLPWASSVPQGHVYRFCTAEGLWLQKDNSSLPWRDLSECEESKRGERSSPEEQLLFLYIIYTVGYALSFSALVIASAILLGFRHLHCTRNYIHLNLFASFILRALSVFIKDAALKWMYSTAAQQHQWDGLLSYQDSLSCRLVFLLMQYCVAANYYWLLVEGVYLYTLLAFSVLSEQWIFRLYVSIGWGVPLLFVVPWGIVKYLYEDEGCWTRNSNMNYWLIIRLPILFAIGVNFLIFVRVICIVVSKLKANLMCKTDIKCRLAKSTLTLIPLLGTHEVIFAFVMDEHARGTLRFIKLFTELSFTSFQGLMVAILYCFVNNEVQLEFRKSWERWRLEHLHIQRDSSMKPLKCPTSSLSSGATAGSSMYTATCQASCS
row,Structure (SMILES),activation at 10 µM [%]
1,CC(C)(C)OC(=O)Nc1ccc(-c2nc(-c3ccc(CC(NC(=O)N4CCN(c5ccccc5C#N)CC4)C(=O)O)cc3F)no2)cc1 (centres unmarked) [Compound 12D],> 60
2,CC(C)(C)OC(=O)Nc1ccc(-c2nc(-c3ccc(CC(NS(=O)(=O)c4ccc([N+](=O)[O-])cc4)C(=O)O)cc3F)no2)cc1 (centres unmarked) [Compound 11H],40 to 60
3,COc1ccc(-c2cc(NC(=O)NC(Cc3ccc(-c4noc(-c5ccc(NC(=O)OC(C)(C)C)cc5)n4)c(F)c3)C(=O)O)[nH]n2)cc1 (centres unmarked) [Compound 12H],> 60
4,CC(C)(C)OC(=O)Nc1ccc(-c2nc(-c3ccc(CC(NC(=O)Nc4cc(-c5ccc(F)c(Br)c5)n[nH]4)C(=O)O)cc3F)no2)cc1 (centres unmarked) [Compound 13S],> 60
5,CC(C)(C)OC(=O)Nc1ccc(-c2nc(-c3ccc(CC(NC(=O)c4cccc(-c5ccc(Cl)cc5)c4)C(=O)O)cc3F)no2)cc1 (centres unmarked) [Compound 13Q],> 60
6,COc1ccc(-c2cncc(C(=O)NC(Cc3ccc(-c4noc(-c5ccc(NC(=O)OC(C)(C)C)cc5)n4)c(F)c3)C(=O)O)c2)cc1 (centres unmarked) [Compound 14G],> 60
7,CC(C)(C)OC(=O)Nc1ccc(-c2nc(-c3ccc(CC(NS(=O)(=O)c4cccc5cccnc45)C(=O)O)cc3F)no2)cc1 (centres unmarked) [Compound 11J],> 60
8,CC(C)(C)OC(=O)Nc1ccc(-c2nc(-c3ccc(CC(NC(=O)Nc4cc(-c5ccccc5)n[nH]4)C(=O)O)cc3F)no2)cc1 (centres unmarked) [Compound 11S],> 60
9,Cc1cccc(-c2ccc(NC(=O)NC(Cc3ccc(-c4noc(-c5ccc(NC(=O)OC(C)(C)C)cc5)n4)c(F)c3)C(=O)O)nc2)c1 (centres unmarked) [Compound 13L],> 60
10,CC(C)c1ccc(-c2ccc(NC(=O)NC(Cc3ccc(-c4noc(-c5ccc(NC(=O)OC(C)(C)C)cc5)n4)c(F)c3)C(=O)O)nc2)cc1 (centres unmarked) [Compound 13O],40 to 60

# Same assay, conditions: 6 h; concentration 1 μM; read-out: Activity (agonist), percentage of the activity of the control
row,Structure (SMILES),activation at 1 µM [%]
1,CC(C)(C)OC(=O)Nc1ccc(-c2nc(-c3ccc(C[C@@H](NC(=O)c4ccc(-c5ccc(C6CC6)cc5)o4)C(=O)O)cc3F)no2)cc1 [Compound 6G],40 to 60
2,CC1CCN(c2cccc(C(=O)NC(Cc3ccc(-c4noc(-c5ccc(NC(=O)OC(C)(C)C)cc5)n4)c(F)c3)C(=O)O)c2)CC1 (centres unmarked) [Compound 3S],> 60
3,Cc1ccc(-c2cccc(C(=O)NC(Cc3ccc(-c4noc(-c5ccc(NC(=O)OC(C)(C)C)cc5)n4)c(F)c3)C(=O)O)c2)cc1 (centres unmarked) [Compound 1U],> 60
4,CC(C)(C)OC(=O)Nc1ccc(-c2nc(-c3ccc(C[C@@H](NC(=O)c4cccc(-c5ccccc5F)c4)C(=O)O)cc3F)no2)cc1 [Compound 6P],40 to 60
5,CC(C)(C)OC(=O)Nc1ccc(-c2nc(-c3ccc(CC(NS(=O)(=O)c4ccc(Br)c(F)c4)C(=O)O)cc3F)no2)cc1 (centres unmarked) [Compound 3O],20 to 40
6,Cc1ccc(N2CCN(C(=O)NC(Cc3ccc(-c4noc(-c5ccc(NC(=O)OC(C)(C)C)cc5)n4)c(F)c3)C(=O)O)CC2)cc1 (centres unmarked) [Compound 4D],> 60
7,Cc1ccc(-c2ccc(C(=O)NC(Cc3ccc(-c4noc(-c5ccc(NC(=O)OC(C)(C)C)cc5)n4)c(F)c3F)C(=O)O)o2)cc1F (centres unmarked) [Compound 5M],> 60
8,CC(C)(C)OC(=O)Nc1ccc(-c2nc(-c3ccc(C[C@@H](NC(=O)c4cccc(C#CC5CC5)c4)C(=O)O)cc3F)no2)cc1 [Compound 6T],20 to 40
9,CC1CCN(S(=O)(=O)NC(Cc2ccc(-c3noc(-c4ccc(NC(=O)OC(C)(C)C)cc4)n3)c(F)c2)C(=O)O)CC1 (centres unmarked) [Compound 3W],40 to 60

# Same assay, conditions: 6 h; concentration 3 μM; read-out: Activity (agonist), percentage of the activity of the control
row,Structure (SMILES),activation at 3 µM [%]
1,CC(C)(C)OC(=O)Nc1ccc(-c2nc(-c3ccc(CC(NC(=O)Nc4ccc(C#N)cc4)C(=O)O)cc3F)no2)cc1 (centres unmarked) [Compound 4U],40 to 60
2,CC(C)c1ccc(-c2cccc(C(=O)N[C@H](Cc3ccc(-c4noc(-c5ccc(NC(=O)OC(C)(C)C)cc5)n4)c(F)c3)C(=O)O)c2)cc1 [Compound 6D],20 to 40
3,CC(C)(C)OC(=O)Nc1ccc(-c2nc(-c3ccc(CC(NC(=O)Nc4ccc(C(C)(C)C)cc4)C(=O)O)cc3F)no2)cc1 (centres unmarked) [Compound 4V],40 to 60
4,Cc1cc(-n2cc(C(=O)NC(Cc3ccc(-c4noc(-c5ccc(NC(=O)OC(C)(C)C)cc5)n4)c(F)c3)C(=O)O)cn2)ccc1F (centres unmarked) [Compound 3G],40 to 60
5,Cc1ccc(-c2ccc(C(=O)NC(Cc3ccc(-c4noc(-c5ccc(NC(=O)OC(C)(C)C)cc5C)n4)c(F)c3)C(=O)O)o2)cc1 (centres unmarked) [Compound 1R],20 to 40
6,Cc1ccc(-c2cccc(NC(=O)NC(Cc3ccc(-c4noc(-c5ccc(NC(=O)OC(C)(C)C)cc5)n4)c(F)c3)C(=O)O)c2)cc1 (centres unmarked) [Compound 5A],40 to 60
7,Cc1ccc(-c2ccc(C(=O)NC(Cc3ccc(-c4noc(-c5ccc(NC(=O)C(C)C)cc5)n4)c(F)c3)C(=O)O)o2)cc1 (centres unmarked) [Compound 2C],40 to 60

# Same assay, conditions: 6 h; concentration 3.16 μM; read-out: Activity (agonist), percentage of the activity of the control
row,Structure (SMILES),activation at 3.16 µM [%]
1,CC(C)(C)OC(=O)Nc1ccc(-c2nc(-c3ccc(CC(NC(=O)Nc4ccncc4)C(=O)O)cc3F)no2)cc1 (centres unmarked) [Compound 4H],> 60
2,CC(C)(C)OC(=O)Nc1ccc(-c2nc(-c3ccc(CC(NS(=O)(=O)N4CCN(c5ccccc5F)CC4)C(=O)O)cc3F)no2)cc1 (centres unmarked) [Compound 4B],40 to 60
3,Cc1ccc(-c2ccc(C(=O)NC(Cc3ccc(-c4noc(-c5ccc(NC(=O)OC(C)(C)C)cc5)n4)c(F)c3)c3nnn[nH]3)o2)cc1 (centres unmarked) [Compound 1H],> 60
4,CC(C)(C)OC(=O)Nc1ccc(/C=C/c2ccc(CC(NC(=O)c3ccc(NC(=O)OC(C)(C)C)cc3)C(=O)O)cc2F)cc1 (centres unmarked) [Compound 5R],40 to 60
5,Cn1c(C(=O)NC(Cc2ccc(-c3noc(-c4ccc(NC(=O)OC(C)(C)C)cc4)n3)c(F)c2)C(=O)O)cnc1-c1ccc(Cl)cc1 (centres unmarked) [Compound 2Y],> 60
6,CC(C)(C)OC(=O)Nc1ccc(-c2nc(-c3ccc(CC(NC(=O)c4cccc(-c5ccc(C#N)cc5)c4F)C(=O)O)cc3F)no2)cc1 (centres unmarked) [Compound 2J],> 60
7,CC(C)(C)OC(=O)Nc1ccc(-c2nc(-c3ccc(CC(NC(=O)C4CC4c4ccccc4)C(=O)O)cc3F)no2)cc1 (centres unmarked) [Compound 1D],20 to 40
8,Cc1ccc(-c2ccc(C(=O)NC(Cc3ccc(F)c(C#Cc4ccc(NC(=O)OC(C)(C)C)cc4)c3)C(=O)O)o2)cc1 (centres unmarked) [Compound 6E],> 60
9,CC(C)(C)OC(=O)Nc1ccc(-c2nc(-c3ccc(CC(NC(=O)c4cnn(-c5ccc(F)c(F)c5)c4)C(=O)O)cc3F)no2)cc1 (centres unmarked) [Compound 2Z],> 60

# Same assay, conditions: 6 h; concentration 10 μM; read-out: Activity (agonist), percentage of the activity of the control
row,Structure (SMILES),activation at 10 µM [%]
1,CC(C)(C)OC(=O)Nc1ccc(-c2nc(-c3ccc(CC(NC(=O)c4coc(-c5ccc(Cl)cc5)n4)C(=O)O)cc3F)no2)cc1 (centres unmarked) [Compound 3H],20 to 40
2,CC(C)(C)OC(=O)Nc1ccc(-c2nc(-c3ccc(CC(NS(=O)(=O)N4CCN(c5ccc(C(F)(F)F)cc5)CC4)C(=O)O)cc3F)no2)cc1 (centres unmarked) [Compound 3Y],> 60
3,CC(C)(C)OC(=O)Nc1ccc(-c2nc(-c3ccc(CC(NS(=O)(=O)N4CCN(c5ccc(Cl)cc5)CC4)C(=O)O)cc3F)no2)cc1 (centres unmarked) [Compound 4A],40 to 60
4,Cc1ccc(-c2ccc(C(=O)NC(Cc3cc(F)c(-c4noc(-c5ccc(NC(=O)OC(C)(C)C)cc5)n4)c(F)c3)C(=O)O)o2)cc1 (centres unmarked) [Compound 5L],> 60
5,Cc1ccc(-c2ccc(C(=O)NC(Cc3ccc(NC(=O)c4cccc(Br)c4)c(F)c3)C(=O)O)o2)cc1 (centres unmarked) [Compound 5S],> 60
6,Cc1ccc(-c2ccc(C(=O)N[C@H](Cc3ccc(-c4cn(-c5ccc(NC(=O)OC(C)C)cc5)nn4)c(F)c3)C(=O)O)o2)cc1 [Compound 5Q],> 60
7,COc1cc2c(cc1OC(=O)c1ccc(NC(=O)OC(C)(C)C)cc1)CN(C(=O)c1ccc(-c3ccc(C)cc3)o1)C(C(=O)O)C2 (centres unmarked) [Compound 5W],> 60
8,Cc1ccc(-c2ccc(C(=O)NC3(C(=O)O)Cc4ccc(-c5noc(-c6ccc(NC(=O)OC(C)(C)C)cc6)n5)cc4C3)o2)cc1 (centres unmarked) [Compound 5Z],> 60

# Same assay, conditions: concentration 10 μM
row,Structure (SMILES),"Activity (agonist), percentage of the activity of the control"
1,"Cc1ccc(-n2cc(C(=O)NC(Cc3ccc(-c4noc(-c5ccc(NC(=O)OC(C)(C)C)cc5)n4)c(F)c3)C(=O)O)cn2)cc1F (centres unmarked) [Compound 2P, 3-(4-(5-(4-((tert-butoxcarbonyl)amino)phenyl)-1,2,4-oxadiazol-3-yl)-3-fluorophenyl)-2-(1-(3-fluoro-4-methylphenyl)-1H-pyrazole-4-carboxamido)propanoic acid]",A (A represents a value no smaller than 60%)
